1 compound from patent US9339508B2, “Use of 3-methoxy-pregnenolone for the preparation of a drug for treating a traumatic brain injury” (MAPREG, priority 2003, dated 2016) can be followed below.

Data set [1] deals with GFAP. Put plainly: GFAP immunohistochemistry after Lateral Fluid Percussion (LFP). Format: in vivo, rat. An excerpt:
After anesthesia induction, the animal was placed on a stereotaxic frame. To expose the dura mater, craniotomy (diameter 5 mm) was under the left parietal cortex (−3.6 mm from Bregma, −3.0 mm from midline). A female Luer-Lock was placed over the craniotomy and was secured to the parietal bone with dental cement. The Luer-Lock was then filled with isotonic saline to create an interface with the dura meter.
Trauma was induced by a fluid percussion device (Custom Design and Manufacturing, United. Kingdom) (Besson et al., 2003) it is a cylindrical tank (60 cm long), with a piston on one side, over which a hammer exercises a constraint, and a male Luer-Lock on the other side. […] The amplitude of each shock wave was measured via a pressure transducer connected to the terminal portion of the device. The pressure signal was recorded on an oscilloscope. […]
After mounting on Superfrost slides, frozen sections were dried for 90 minutes at room temperature and stored at −80° C. until use. […] Immunostaining was quantitatively assessed by optical density measurements directly from the section image (Image J). […]
GFAP expression was measured by immunohistochemistry at day 35 post-trauma in injured and uninjured cortex, thalamus and hippocampus of LFP traumatized, rats treated with vehicle (sesame oil), or 3-methoxy-PREG (MAP4343) at 10 mg/kg or 20 mg/kg, with first injection at 2 hours post-trauma.

In data set [2] the target is T1, human progesterone receptor (PR) (Homo sapiens, UniProt P06401).
T1 construct: expressed in transfected cells; host or cells: HEK293T cells
T1 sequence (P06401 1-933): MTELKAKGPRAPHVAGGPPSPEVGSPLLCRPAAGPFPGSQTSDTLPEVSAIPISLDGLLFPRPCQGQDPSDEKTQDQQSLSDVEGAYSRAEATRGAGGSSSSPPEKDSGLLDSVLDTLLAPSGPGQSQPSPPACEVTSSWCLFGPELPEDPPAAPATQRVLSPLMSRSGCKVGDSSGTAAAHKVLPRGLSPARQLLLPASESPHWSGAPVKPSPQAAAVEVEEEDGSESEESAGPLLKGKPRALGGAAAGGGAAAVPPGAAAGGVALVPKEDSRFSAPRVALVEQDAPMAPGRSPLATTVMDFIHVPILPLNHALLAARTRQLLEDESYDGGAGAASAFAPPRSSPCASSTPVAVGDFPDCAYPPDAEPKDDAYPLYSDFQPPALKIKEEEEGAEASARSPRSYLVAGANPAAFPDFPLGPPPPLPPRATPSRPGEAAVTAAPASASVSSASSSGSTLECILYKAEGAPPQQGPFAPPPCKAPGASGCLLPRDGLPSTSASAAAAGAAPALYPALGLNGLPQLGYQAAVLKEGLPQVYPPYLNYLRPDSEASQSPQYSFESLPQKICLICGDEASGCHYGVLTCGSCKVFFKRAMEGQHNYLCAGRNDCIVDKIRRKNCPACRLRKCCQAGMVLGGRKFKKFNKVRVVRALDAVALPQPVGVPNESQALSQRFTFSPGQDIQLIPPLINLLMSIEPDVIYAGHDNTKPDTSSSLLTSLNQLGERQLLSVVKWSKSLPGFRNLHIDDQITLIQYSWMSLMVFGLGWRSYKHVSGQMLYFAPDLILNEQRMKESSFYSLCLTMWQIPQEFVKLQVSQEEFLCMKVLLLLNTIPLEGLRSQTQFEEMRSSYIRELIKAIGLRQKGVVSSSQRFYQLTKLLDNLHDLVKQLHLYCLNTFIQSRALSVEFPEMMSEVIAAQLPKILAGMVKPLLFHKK
Put plainly: Test of progesterone receptor agonist activity (luciferase transactivation, HEK293T). The class given is cell-based. The following applies: 24 hours, increasing amounts. The procedure: The main experimental setting used is the following: HEK293T cells were transiently transfected, using calcium phosphate precipitation technology, with expression receptors pSG5hPR (which permits expression of human progesterone receptor (PR)), pFC31-luc (contains the luciferase gene under the control of the MTV promoter, which is in turn activated by binding of a progestin to progesterone receptor) and pcbetagal (which permits expression of betagalactosidase), and cultured during 24 hours with increasing amounts of various compositions: • 1. […] Test of progesterone receptor […] activity: transfected cells were cultured with progesterone (1 nM) and increasing amounts of RU486 (a well-known progesterone receptor antagonist) or 3-methoxy-pregnenolone. • With this setting, a compound with progesterone receptor antagonist activity competes with progesterone for the occupation of progesterone receptor and results in a progressive loss of transactivation activity when the amount of this compound is increased compared to progesterone. Results

Data set [3] has as its system CHI traumatized rats. Put plainly: MRI of ventricular dilatation after Closed Head Injury (CHI). Format: in vivo, rat. The following applies: day 28 post-trauma, 20 mg/kg starting 24 hours post-trauma, compared to the vehicle. The text has this: The model “Closed Head Injury” (CHI), also commonly known as “weight-drop”, “impact-acceleration” or Marmarou model, allows the induction of TBI on a closed skull and generates diffuse axonal injuries (Holtzer et al 2001). After anesthesia induction, the scalp was incised, a piece of metal (diameter 10 mm, height 3 mm)—designed to protect against skull fracture—was glued to the skull, between the lambda and bregma. The animal was then placed on a foam bed and a cylindrical metallic 230-g weight was dropped from 2 m through a metal tubing onto the disk. At the very moment of the impact, the head of the animal plunged briefly in the foam bed, which leads to an acceleration/deceleration of the brain inside the skull.
To determine lateral ventricle preservation, as well as lesion size (in the CCI model), T2-weighted MRI was performed 28 days after injury (D28). Acquisition was performed on a 7T Bruker AVANCE BIOSPEC—horizontal magnet, with rapid acquisition and relaxation enhancement (RARE).
MRI imaging of rats was performed at day 28 post-trauma. Based on MRI imaging, ventricular dilatation induced by CHI trauma was analyzed in CHI traumatized rats injected from 24 hours post-trauma with sesame oil (CHI-D0), or 3-methoxy-PREG (MAP4343) at 10 mg/kg (CHI-D1) or 20 mg/kg (CHI-D2).

A short description of data set [4]: Pharmacokinetics by GC/MS, brain and spinal cord. The following applies: 12 mg/kg subcutaneous in sesame oil; 1, 4, 8, 24 hours. The class given is in vivo, rat. The procedure:
FIG. 9: Kinetics of the appearance of 3-methoxy-PREG (43B) in rat brain and spinal cord following subcutaneous injection of 43B (12 mg/kg) in a sesame oil solution.
The pharmacokinetics of the molecules tested in vivo are evaluated using gas chromatography/mass spectrometry (GC/MS) assays.

Structures are written as SMILES.

On to `CO[C@H]1CC[C@@]2(C)C(=CC[C@H]3[C@@H]4CC[C@H](C(C)=O)[C@@]4(C)CC[C@@H]32)C1` [3-methoxy-PREG, 3β-methoxy-pregna-5-ene-20-one], for which, in data set [1] (day 35, 10 mg/kg or 20 mg/kg, first injection 2 hours post-trauma), the “astrocytes GFAP immunoreactivity in the injured cortex” value is listed as “highly decreased”. For the same compound, in data set [1] (day 35, especially Dose2 (20 mg/kg)), the “astrocytes immunoreactivity in the injured thalamus” value was “strongly decreases astrocytes immunoreactivity”. In addition, in data set [2], the “progesterone receptor agonist activity (transactivation)” value was “does not have progesterone receptor agonist activity”. In data set [3], the ventricular dilatation entry was “significantly decreases the ventricular dilatation”. Also, the “penetration into spinal cord and brain” value in data set [4] is “penetrates rapidly into the spinal cord and the brain”.
